This is an account of results in US20130143955A1, “Cyclic di-GMP-II Riboswitches, Motifs, and Compounds, and Methods for Their Use” (priority 2010, published 2013).

SMILES strings stand for the structures. Values joined by “and” are separate entries in the source; they are usually repeats but may differ in a detail not shown here. Equal values may be shown once.

The subject of experiment [1] is 864 Cd Tandem RNA (c-di-GMP-II aptamer and group I ribozyme). Kind of experiment: Self-splicing assays of the tandem riboswitch-ribozyme. The experiment is classed as biochemical, Clostridium difficile 630. The conditions noted are these: for Rate constant, product 3′E* (alternative GTP attack product) / Rate constant, product 5′E-3′E (spliced exons): Internally 32P-labeled RNA; for Rate constant, product GTP1 (GTP attack at 5′ SS) / Rate constant, product GTP2 (alternative GTP attack site): Unlabeled RNA, [α-32P]GTP. The protocol: Initial ribozyme self-splicing reaction conditions were based on those previously reported for use with a group I ribozyme from Tetrahymena thermophile and consisted of incubations at 30° C. in the presence of 50 mM HEPES (pH 7.5 at 23° C.), 100 mM (NH4)2SO4, 5 mM MgCl2, and 0.1 mM GTP. At concentrations of MgCl2 above 10 mM and temperatures at 37° C. or above, the difference between the ligated exons and alternate GTP attack site products became less pronounced. A range of ligand concentrations were tested for both GTP (5 μM to 1 mM) and cyclic di-GMP ([…] to 100 μM) to determine the optimal amounts for splicing activity, based on probable biological relevance and degree of allosteric control.
Splicing assays for wild-type and mutant RNAs were carried out for 30 minutes (unless otherwise noted) under the conditions described above, with the addition of 50 μM GTP and/or 10 μM c-di-GMP when stated. Final RNA concentrations were lower than 1 μM for all reactions. Reaction mixtures containing unlabeled RNA were supplemented with 1 μCi/μL [α-^32P]GTP. Products were separated by denaturing 6% PAGE. Gels were dried and products were subsequently imaged using a PhosphorImager (Molecular Dynamics).
Aliquots from splicing reactions conducted with either 5′ or internally ^32P-labeled 864 Cd Tandem RNAs were removed at various incubation times and the reactions were terminated by the addition of stop buffer (see below). Similarly, time course experiments were conducted with unlabeled 864 Cd Tandem RNAs supplemented with ˜50 nCi/μL [α-^32P]GTP. Reactions were initiated by combining a solution containing RNA only (˜100 pM 5′ ^32P-labeled RNA, ˜1 μM internally ^32P-labeled RNA, or ˜10 nM unlabeled RNA) with a solution containing the buffer and any ligands to yield a final concentration of contents as described above. The two mixtures were briefly pre-heated at 30° C. and the reaction was initiated by the transfer of buffer/ligand solution to the RNA solution. The zero time point was removed prior to initiation of the reaction and immediately placed into an equivalent volume of stop buffer (8 M urea, 20% w/v sucrose, 0.1% SDS, 0.05% bromophenol blue, 0.05% xylene cyanol FF, 0.09 M Tris base, 0.09 M borate, 1 mM EDTA [pH 8.0]). Likewise, subsequent aliquots were removed at each time point and quenched by placement in stop buffer. Reaction products were separated as described above and dried gels were imaged using a PhosphorImager (Molecular Dynamics).
For precursor RNAs that were initially ^32P-labeled, rate constants for product formation were established by determining the yield of specific products relative to the unprocessed or misprocessed RNAs. First, an average background for each lane was calculated and subtracted from intensities of individual bands or lanes. Second, product band intensities were compared to the total intensity of their corresponding lane, which corrected for any differences due to sample loading. Third, the band intensity at time zero was subtracted from the corresponding bands of all other time points. Yields of products from assays conducted with internally ^32P-labeled RNAs were also corrected for the number of uridine nucleotides in the product RNA versus the total number of uridine nucleotides in the precursor RNA (252 nucleotides). This correction allows for direct comparison of the number of molecules present in each product band. The total fraction of RNA processed at 120 minutes is ˜40%. […] This extent of RNA misfolding, particularly in the absense of possible protein factors, is also typical of other large functional RNAs. Thus, at 120 minutes, approximately 80% of the total reactable RNA has undergone processing. The fractions of RNA processed for the internally ^32P-labeled RNA was adjusted to reflect this value of 80% at 120 minutes.
For splicing assays conducted using unlabeled precursor RNAs, determination of rate constants were conducted differently. […]

For experiment [2], the system named is ompR riboswitch (c-di-GMP-II, ompR 5′ UTR). Kind of experiment: Single-round transcription termination assay. The conditions noted are these: WT ompR construct, c-di-GMP 50 μM. The experiment is classed as biochemical, C. difficile. The protocol:
Single round transcription assays were conducted using a method (FIG. 7) adapted as described previously (data not shown) with the following modifications. The elongation mixture contained 50 μM UTP, and 150 μM each of ATP, GTP and CTP. Heparin was added at 0.1 mg/mL at initiation of elongation. For the reactions containing the second messenger, c-di-GMP was added to a final concentration of 50 μM.
A template DNA harboring the 5′ UTR of the ompR gene of C. difficile and its native promoter was prepared by PCR (see Table 4). The predicted intrinsic transcription termination site is 40 nucleotides shorter than the terminus of the template DNA. The ompR riboswitch is predicted to be an ‘ON’ switch based on its architecture. Therefore the full length transcript was expected to undergo decreased termination in the presence of c-di-GMP. Mutant templates M2 and M3 were constructed by PCR and confirmed by sequencing (see Table 4). A template DNA for production of a simulated intrinsic transcription termination product was generated by PCR and was used as a marker during PAGE analysis of transcription products.
Further evidence of aptamer-controlled transcription termination was observed by conducting single-round transcription assays in vitro using another C. difficile c-di-GMP-II construct from the ompR mRNA (FIG. 2C). […]

The mark [3] stands for this setting: GTP + and c-di-GMP +, first 15 minutes.

As for `Nc1nc2c(ncn2[C@@H]2O[C@H](COP(=O)(O)OP(=O)(O)OP(=O)(O)O)[C@@H](O)[C@H]2O)c(=O)[nH]1` [GTP], the “ratio of alternative attack product (3′E*) to spliced exons (5′E-3′E)” value in experiment [1] (120 minutes, absence of c-di-GMP (GTP only)) is listed as “more than 20 fold”. Moreover, in experiment [1] (GTP + and c-di-GMP −), the “Rate constant, product 3′E* (alternative GTP attack product)” value stood at 0.024 min⁻¹; the “Rate constant, product 5′E-3′E (spliced exons)” value is 1.1×10^−3 min^−1; the “Rate constant, product GTP1 (GTP attack at 5′ SS)” value came to 0.0018 min⁻¹; the “Rate constant, product GTP2 (alternative GTP attack site)” value came out at 0.027 min⁻¹.
For the compound `Nc1nc2c(ncn2[C@@H]2O[C@@H]3COP(=O)(O)O[C@H]4[C@@H](O)[C@H](n5cnc6c(=O)[nH]c(N)nc65)O[C@@H]4COP(=O)(O)O[C@H]3[C@H]2O)c(=O)[nH]1` [c-di-GMP, cyclic di-GMP], the EC50 in experiment [1] (5′ 32P-labeled 864 Cd Tandem RNA, 120 minutes, read-out: S50, concentration of c-di-GMP at which 5′E-3′E is half-maximally processed) was ~30 nM and 30 nM. Moreover, the “ratio of alternative attack product (3′E*) to spliced exons (5′E-3′E)” value in experiment [1] (120 minutes, c-di-GMP present) is “near equal amounts”. For the same compound, the “increase in initial rate constant for GTP attack at the 5′ SS” value in experiment [1] (GTP and c-di-GMP versus only GTP, unlabeled RNA, first 15 minutes) is given as roughly 13 fold. Moreover, in experiment [1] (GTP + and c-di-GMP +), the “Rate constant, product 3′E* (alternative GTP attack product)” value turned out to be 0.018 min⁻¹ and the “Rate constant, product 5′E-3′E (spliced exons)” value was 1.3×10^−2 min^−1. Further, in experiment [1] (setting [3]), the “Rate constant, product GTP1 (GTP attack at 5′ SS)” value amounted to 0.023 min⁻¹ and the “Rate constant, product GTP2 (alternative GTP attack site)” value was found to be 0.023 min⁻¹. Also, the “increase in the production of spliced exons” value in experiment [1] (presence versus absence of c-di-GMP, 120 minutes) is recorded as roughly 8 fold. The “increase in the initial rate constant for spliced product formation” value in experiment [1] (presence versus absence of c-di-GMP, internally labeled RNA) came to 12 fold. In addition, in experiment [2], the “production of full-length RNA transcript (transcription termination control)” value is given as “robust production of full-length RNA transcript only when c-di-GMP is added”.
